Results: patent publication US8084649B2, “Herbicides” (Syngenta Crop Protection, inc., priority 2007, dated 2011)

tested on: Avena fatua (AVEFA); experiment: Post-emergence herbicidal activity, glasshouse pot test; assay type: in vivo; settings: Avena fatua, rate 125 g/ha, evaluated after 14 or 15 days, read-out: Post-emergence activity, AVEFA (100=total damage to plant; 0=no damage to plant)
How it was run: (§1)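 Plants sown in sterilised standard soil, grown 10 days in glasshouse, then sprayed with aqueous dilution of active ingredient formulated in acetone plus Emulsogen EL/N-methylpyrrolidone/dipropylene glycol monomethyl ether/X-77 solution. Damage scored visually 14 or 15 days after spraying, 0 (none) to 100 (total).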

Point of comparison: `CCc1cc(C)cc(CC)c1C1=C(OC)CC2(CCOCC2)CC1=O` [Compound P32], pest or weed control at 125 g/ha 0%. Against it:
- CCc1cc(C)cc(CC)c1C1=C(OC(=O)CC(C)C)CC2(CCOCC2)CC1=O [Compound P5] — higher, 100%
- CCc1cc(C)cc(CC)c1C1=C(O)CC2(CCS(=O)(=O)CC2)CC1=O [Compound T53] — higher, 80%

tested on: Setaria faberi (SETFA); experiment: as above; assay type: in vivo; settings: Setaria faberi, rate 125 g/ha, evaluated after 14 or 15 days, read-out: Post-emergence activity, SETFA (100=total damage to plant; 0=no damage to plant)
How it was run: as §1

Point of comparison: `CCc1cc(C)cc(CC)c1C1=C(O)CC2(CCS(=O)(=O)CC2)CC1=O` [Compound T53], pest or weed control at 125 g/ha 60%. Against it:
- CCc1cc(C)cc(CC)c1C1=C(OC(=O)CC(C)C)CC2(CCOCC2)CC1=O [Compound P5] — higher, 90%
- CCc1cc(C)cc(CC)c1C1=C(OC)CC2(CCOCC2)CC1=O [Compound P32] — lower, 0%

tested on: Alopecurus myosuroides (ALOMY); experiment: as above; assay type: in vivo; settings: Alopecurus myosuroides, rate 125 g/ha, evaluated after 14 or 15 days, read-out: Post-emergence activity, ALOMY (100=total damage to plant; 0=no damage to plant)
How it was run: as §1

Point of comparison: `CCc1cc(C)cc(CC)c1C1=C(OC(=O)CC(C)C)CC2(CCOCC2)CC1=O` [Compound P5], pest or weed control at 125 g/ha 100%. Against it:
- CCc1cc(C)cc(CC)c1C1=C(O)CC2(CCS(=O)(=O)CC2)CC1=O [Compound T53] — lower, 80%
- CCc1cc(C)cc(CC)c1C1=C(OC)CC2(CCOCC2)CC1=O [Compound P32] — lower, 20%

tested on: Lolium perenne (LOLPE); experiment: as above; assay type: in vivo; settings: Lolium perenne, rate 125 g/ha, evaluated after 14 or 15 days, read-out: Post-emergence activity, LOLPE (100=total damage to plant; 0=no damage to plant)
How it was run: as §1

Point of comparison: `CCc1cc(C)cc(CC)c1C1=C(O)CC2(CCS(=O)(=O)CC2)CC1=O` [Compound T53], pest or weed control at 125 g/ha 70%. Against it:
- CCc1cc(C)cc(CC)c1C1=C(OC(=O)CC(C)C)CC2(CCOCC2)CC1=O [Compound P5] — higher, 100%
- CCc1cc(C)cc(CC)c1C1=C(OC)CC2(CCOCC2)CC1=O [Compound P32] — lower, 0%

tested on: Echinochloa crus-galli (ECHCG); experiment: as above; assay type: in vivo; settings: Echinochloa crus-galli, rate 125 g/ha, evaluated after 14 or 15 days, read-out: Post-emergence activity, ECHCG (100=total damage to plant; 0=no damage to plant)
How it was run: as §1

Point of comparison: `CCc1cc(C)cc(CC)c1C1=C(OC)CC2(CCOCC2)CC1=O` [Compound P32], pest or weed control at 125 g/ha 0%. Against it:
- CCc1cc(C)cc(CC)c1C1=C(OC(=O)CC(C)C)CC2(CCOCC2)CC1=O [Compound P5] — higher, 100%
- CCc1cc(C)cc(CC)c1C1=C(O)CC2(CCS(=O)(=O)CC2)CC1=O [Compound T53] — higher, 100%

tested on: Digitaria sanguinalis (DIGSA); experiment: as above; assay type: in vivo; settings: Digitaria sanguinalis, rate 125 g/ha, evaluated after 14 or 15 days, read-out: Post-emergence activity, DIGSA (100=total damage to plant; 0=no damage to plant)
How it was run: as §1

Point of comparison: `CCc1cc(C)cc(CC)c1C1=C(OC(=O)CC(C)C)CC2(CCOCC2)CC1=O` [Compound P5], pest or weed control at 125 g/ha 100%. Against it:
- CCc1cc(C)cc(CC)c1C1=C(O)CC2(CCS(=O)(=O)CC2)CC1=O [Compound T53] — lower, 90%
- CCc1cc(C)cc(CC)c1C1=C(OC)CC2(CCOCC2)CC1=O [Compound P32] — lower, 0%

tested on: Avena fatua (AVEFA); experiment: Pre-emergence herbicidal activity, glasshouse pot test; assay type: in vivo; settings: Avena fatua, 480 h, rate 500 g/ha, evaluated after 20 days, read-out: Pre-emergence activity, AVEFA (100=total damage to plant; 0=no damage to plant)
How it was run: (§2)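 Visual damage score 0–100 (100 = plant totally killed), taken 20 days after treatment. Spray was applied to pots of sterilised standard soil one day post-sowing, using an aqueous solution of compound in acetone and a surfactant/solvent blend (Emulsogen EL, NMP, DPGME, X-77).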

Point of comparison: `CCc1cc(C)cc(CC)c1C1=C(OC(=O)CC(C)C)CC2(CCOCC2)CC1=O` [Compound P5], pest or weed control at 500 g/ha 100%. Against it:
- CCc1cc(C)cc(CC)c1C1=C(O)CC2(CCS(=O)(=O)CC2)CC1=O [Compound T53] — lower, 80%
- CCc1cc(C)cc(CC)c1C1=C(OC)CC2(CCOCC2)CC1=O [Compound P32] — the same, 100%

tested on: Setaria faberi (SETFA); experiment: as above; assay type: in vivo; settings: Setaria faberi, 480 h, rate 500 g/ha, evaluated after 20 days, read-out: Pre-emergence activity, SETFA (100=total damage to plant; 0=no damage to plant)
How it was run: as §2

Point of comparison: `CCc1cc(C)cc(CC)c1C1=C(OC(=O)CC(C)C)CC2(CCOCC2)CC1=O` [Compound P5], pest or weed control at 500 g/ha 100%. Against it:
- CCc1cc(C)cc(CC)c1C1=C(O)CC2(CCS(=O)(=O)CC2)CC1=O [Compound T53] — lower, 30%
- CCc1cc(C)cc(CC)c1C1=C(OC)CC2(CCOCC2)CC1=O [Compound P32] — lower, 10%

tested on: Alopecurus myosuroides (ALOMY); experiment: as above; assay type: in vivo; settings: Alopecurus myosuroides, 480 h, rate 500 g/ha, evaluated after 20 days, read-out: Pre-emergence activity, ALOMY (100=total damage to plant; 0=no damage to plant)
How it was run: as §2

Point of comparison: `CCc1cc(C)cc(CC)c1C1=C(OC)CC2(CCOCC2)CC1=O` [Compound P32], pest or weed control at 500 g/ha 100%. Against it:
- CCc1cc(C)cc(CC)c1C1=C(OC(=O)CC(C)C)CC2(CCOCC2)CC1=O [Compound P5] — the same, 100%
- CCc1cc(C)cc(CC)c1C1=C(O)CC2(CCS(=O)(=O)CC2)CC1=O [Compound T53] — lower, 60%

tested on: Lolium perenne (LOLPE); experiment: as above; assay type: in vivo; settings: Lolium perenne, 480 h, rate 500 g/ha, evaluated after 20 days, read-out: Pre-emergence activity, LOLPE (100=total damage to plant; 0=no damage to plant)
How it was run: as §2

Point of comparison: `CCc1cc(C)cc(CC)c1C1=C(O)CC2(CCS(=O)(=O)CC2)CC1=O` [Compound T53], pest or weed control at 500 g/ha 90%. Against it:
- CCc1cc(C)cc(CC)c1C1=C(OC(=O)CC(C)C)CC2(CCOCC2)CC1=O [Compound P5] — higher, 100%
- CCc1cc(C)cc(CC)c1C1=C(OC)CC2(CCOCC2)CC1=O [Compound P32] — higher, 100%

tested on: Echinochloa crus-galli (ECHCG); experiment: as above; assay type: in vivo; settings: Echinochloa crus-galli, 480 h, rate 500 g/ha, evaluated after 20 days, read-out: Pre-emergence activity, ECHCG (100=total damage to plant; 0=no damage to plant)
How it was run: as §2

Point of comparison: `CCc1cc(C)cc(CC)c1C1=C(OC)CC2(CCOCC2)CC1=O` [Compound P32], pest or weed control at 500 g/ha 20%. Against it:
- CCc1cc(C)cc(CC)c1C1=C(OC(=O)CC(C)C)CC2(CCOCC2)CC1=O [Compound P5] — higher, 100%
- CCc1cc(C)cc(CC)c1C1=C(O)CC2(CCS(=O)(=O)CC2)CC1=O [Compound T53] — higher, 100%

tested on: Digitaria sanguinalis (DIGSA); experiment: as above; assay type: in vivo; settings: Digitaria sanguinalis, 480 h, rate 500 g/ha, evaluated after 20 days, read-out: Pre-emergence activity, DIGSA (100=total damage to plant; 0=no damage to plant)
How it was run: as §2

Point of comparison: `CCc1cc(C)cc(CC)c1C1=C(OC)CC2(CCOCC2)CC1=O` [Compound P32], pest or weed control at 500 g/ha 50%. Against it:
- CCc1cc(C)cc(CC)c1C1=C(OC(=O)CC(C)C)CC2(CCOCC2)CC1=O [Compound P5] — higher, 100%
- CCc1cc(C)cc(CC)c1C1=C(O)CC2(CCS(=O)(=O)CC2)CC1=O [Compound T53] — higher, 100%
